From patent publication US20220386591A1, “CRYOPRESERVATION COMPOSITIONS AND METHODS INCLUDING GLYCEROL ESTER COMPONENTS” (THE SECANT GROUP LLC, priority 2021, published 2022)

System: Jurkat E6.1 cells (ATCC #TIB-152)
Assay: Post-thaw viability of cells frozen immediately after addition of cryopreservative (trypan blue exclusion)
Type: cell-based
Settings: 10 wt % DMSO, FIG. 1
Procedure: A glycerol ester component in the form of PGS was added to cell culture media containing Jurkat E6.1 cells (ATCC #TIB-152) at three different concentrations: 250 μg/mL (about 0.025 wt %), 500 μg/mL (about 0.05 wt %), and 1000 μg/mL (about 0.1 wt %). […] Cell culture media containing Jurkat E6.1 cells (ATCC #TIB-152) with no PGS and cell culture media containing Jurkat E6.1 cells (ATCC #TIB-152) with 10% DMSO served as controls. Cells were then immediately frozen at a rate of −1° C./min to −80° C. Once frozen, the cryopreserved cells were transferred to liquid nitrogen vapor phase storage for 72 hours. Following storage in a liquid nitrogen vapor phase, the cells were thawed and their viability was assessed through a trypan blue exclusion assay using a ThermoFisher Countess II FL automated cell counter to determine the percentage of viable cells.

C[S+](C)[O-] [DMSO, dimethyl sulfoxide]
cryoprotection of viable cells post-thaw (positive control): provided cryoprotection to essentially all of the viable cells
